The source made the active and inactive calls. The calls are words filed in the database; no cut-off is given here. Peptide text beside a SMILES is read from it.

Data set [1] concerns the target T1, Sodium/glucose cotransporter 1 (Homo sapiens) (UniProt P13866).
T1 sequence (whole entry): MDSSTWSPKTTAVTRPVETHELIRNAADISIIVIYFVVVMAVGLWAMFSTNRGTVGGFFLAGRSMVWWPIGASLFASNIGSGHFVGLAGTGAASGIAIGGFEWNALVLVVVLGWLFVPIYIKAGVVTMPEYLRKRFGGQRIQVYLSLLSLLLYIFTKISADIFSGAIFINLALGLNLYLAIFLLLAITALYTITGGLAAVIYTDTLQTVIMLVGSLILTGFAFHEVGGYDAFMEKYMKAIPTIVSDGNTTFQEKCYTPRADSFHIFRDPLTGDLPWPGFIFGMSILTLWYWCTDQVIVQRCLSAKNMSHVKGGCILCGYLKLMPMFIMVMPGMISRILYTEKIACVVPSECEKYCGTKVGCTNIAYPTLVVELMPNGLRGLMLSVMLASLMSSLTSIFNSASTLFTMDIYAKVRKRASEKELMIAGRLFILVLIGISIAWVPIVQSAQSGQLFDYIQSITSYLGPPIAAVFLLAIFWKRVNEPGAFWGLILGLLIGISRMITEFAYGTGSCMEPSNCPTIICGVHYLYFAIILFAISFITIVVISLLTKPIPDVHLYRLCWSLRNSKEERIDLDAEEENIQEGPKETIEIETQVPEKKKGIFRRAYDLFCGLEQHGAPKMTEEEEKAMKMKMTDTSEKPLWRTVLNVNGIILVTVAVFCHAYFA
Kind of data set: Inhibition of human SGLT1 expressed in xenopus laevis oocyte assessed as inhibition of methyl-alpha-D-[14C]glucopyranoside uptake at 75 pmol after 1 hr relative to control. The arrangement: Activity: scale not given: the % may be the effect or the level left.

In data set [2] the target is T2, Solute carrier family 15 member 1 (Homo sapiens) (UniProt P46059).
T2 sequence (whole entry): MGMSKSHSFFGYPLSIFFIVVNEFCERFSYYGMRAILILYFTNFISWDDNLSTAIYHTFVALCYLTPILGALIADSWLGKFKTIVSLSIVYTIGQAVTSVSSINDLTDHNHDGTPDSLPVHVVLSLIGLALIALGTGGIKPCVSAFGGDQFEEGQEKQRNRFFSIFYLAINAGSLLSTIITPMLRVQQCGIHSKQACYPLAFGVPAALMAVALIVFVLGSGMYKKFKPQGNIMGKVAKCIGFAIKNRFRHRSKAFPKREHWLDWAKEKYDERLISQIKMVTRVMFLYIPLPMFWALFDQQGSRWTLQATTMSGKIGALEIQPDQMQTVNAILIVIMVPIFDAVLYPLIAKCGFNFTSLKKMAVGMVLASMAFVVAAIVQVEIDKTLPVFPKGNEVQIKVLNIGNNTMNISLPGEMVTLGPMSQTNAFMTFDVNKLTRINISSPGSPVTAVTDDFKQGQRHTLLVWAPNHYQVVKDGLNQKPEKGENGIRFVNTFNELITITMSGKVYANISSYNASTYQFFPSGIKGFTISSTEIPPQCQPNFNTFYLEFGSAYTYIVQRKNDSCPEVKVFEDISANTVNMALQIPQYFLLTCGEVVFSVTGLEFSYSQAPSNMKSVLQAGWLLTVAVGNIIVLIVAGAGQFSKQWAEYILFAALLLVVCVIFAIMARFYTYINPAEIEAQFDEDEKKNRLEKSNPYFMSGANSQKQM
Kind of data set: Activity of human PepT1 expressed in xenopus laevis oocyte assessed as induction of inward current at 5 mM.

In data set [3] the target is T1, Sodium/glucose cotransporter 1 (Homo sapiens). Kind of data set: Reversal of inhibition of human SGLT1 expressed in xenopus laevis oocyte by measuring inhibition of methyl-alpha-D-[14C]glucopyranoside uptake after 1 hr assessed concentration required for 50% protective high affinity in presence of methyl-alpha-D-glucopyranoside relative to control.
For data set [4] the target is unchanged. Kind of data set: Reversal of inhibition of human SGLT1 expressed in xenopus laevis oocyte by measuring inhibition of methyl-alpha-D-[14C]glucopyranoside uptake after 1 hr assessed concentration required for 50% protective high affinity in presence of 2-deoxyglucose relative to control.
For data set [5] the target is unchanged. Kind of data set: Reversal of inhibition of human SGLT1 expressed in xenopus laevis oocyte assessed as inhibition of methyl-alpha-D-[14C]glucopyranoside uptake at 75 pmol after 1 hr in presence of D-fructose relative to control.
For data set [6] the target is unchanged. As to the kind of experiment: Reversal of inhibition of human SGLT1 expressed in xenopus laevis oocyte assessed as inhibition of methyl-alpha-D-[14C]glucopyranoside uptake at 75 pmol after 1 hr in presence of D-glucose relative to control.
Data set [7] shares this target. As to the kind of experiment: Reversal of inhibition of human SGLT1 expressed in xenopus laevis oocyte assessed as inhibition of methyl-alpha-D-[14C]glucopyranoside uptake at 75 pmol after 1 hr in presence of methyl-alpha-D-glucopyranoside relative to control.
For data set [8] the target is unchanged. Kind of data set: Reversal of inhibition of human SGLT1 expressed in xenopus laevis oocyte assessed as inhibition of methyl-alpha-D-[14C]glucopyranoside uptake at 75 pmol after 1 hr in presence of 2-deoxyglucose relative to control.
Data set [9] shares this target. As to the kind of experiment: Reversal of inhibition of human SGLT1 expressed in xenopus laevis oocyte by measuring inhibition of methyl-alpha-D-[14C]glucopyranoside uptake after 1 hr assessed concentration required for 50 % protective high affinity in presence of D-glucose relative to control.
Data set [10] relates to Small intestine. As to the kind of experiment: Decrease of D-glucose absorption in perfused rat small intestine at 15 mM relative to control. The data set is classed as functional. Set-up: scale not given: the % may be the effect or the level left.
Substrate in data set [11]: NC(=O)CC[C@H](N)C(=O)N[C@@H](CO)C(=O)N1CCC[C@H]1C(=O)O
As to the kind of experiment: Activity of human PepT1 expressed in xenopus laevis oocyte assessed as induction of inward current.

For the molecule `CC(=O)N1CCC[C@H]1C(=O)N[C@@H](CO)C(=O)N[C@@H](CCC(N)=O)C(=O)O` (Ac-Pro-Ser-Gln-OH), in data set [1], the Activity was 44%.

Take `CC(=O)N1CCC[C@H]1C(=O)N[C@@H](CC(C)C)C(=O)N[C@@H](CCC(N)=O)C(=O)O` (Ac-Pro-Leu-Gln-OH): the outcome in [1] was Active.

Regarding `CC(=O)N[C@@H](CCC(N)=O)C(=O)N[C@@H](CS)C(=O)N1CCC[C@H]1C(=O)O` (Ac-Gln-Cys-Pro-OH), the outcome in data set [2] was Active. In addition, in data set [1], the outcome was inactive.

In the case of `CC(=O)N1CCC[C@H]1C(=O)NCC(=O)N[C@@H](CCC(N)=O)C(=O)O` (Ac-Pro-Gly-Gln-OH), the outcome in data set [1] was Active.

Take `CC(=O)N1CCC[C@H]1C(=O)N[C@H](C(=O)N[C@@H](CCC(N)=O)C(=O)O)[C@@H](C)O` (Ac-Pro-Thr-Gln-OH): the result in data set [1] was Active.

As to `CC(=O)N1CCC[C@H]1C(=O)N1CCC[C@H]1C(=O)N[C@@H](CCC(N)=O)C(=O)O` (Ac-Pro-Pro-Gln-OH), in [1], the outcome was Active.

For the molecule `NC(=O)CC[C@H](N)C(=O)N[C@@H](CS)C(=O)N1CCC[C@H]1C(=O)O` (H-Gln-Cys-Pro-OH), the Activity is 53 µM in [3] and 11.9 µM in data set [4]. Moreover, the outcome in data set [1], in data set [5], in data set [6], in [7] and in data set [8] was Active.

`NC(=O)CC[C@H](N)C(=O)N[C@@H](CO)C(=O)N1CCC[C@H]1C(=O)O` (H-Gln-Ser-Pro-OH): the Activity in data set [9] turned out to be 30 µM; in [10], 30%; in data set [3], 53 µM; in data set [4], 11.9 µM. Also, the result in data set [2], in data set [1], in [5], in data set [6], in data set [7] and in data set [8] was Active.

On to Ac-SVQPCQENQ-OH, for which the inhibition in data set [1] amounted to 55%.

For `NCC(=O)N[C@@H](CCC(N)=O)C(=O)O` (H-Gly-Gln-OH), the result in data set [2] was Active.

As to `CC(=O)N[C@@H](CCC(N)=O)C(=O)N[C@@H](CCC(=O)O)C(=O)N1CCC[C@H]1C(=O)O` (Ac-Gln-Glu-Pro-OH), the result in data set [1] was Active.

B1: Solute carrier family 15 member 1 (Homo sapiens), P46059 (protein)
chain: T2 sequence (whole entry)
In the case of B1, the Km in data set [11] was 4.2 mM.

For orientation: inhibition means how much of the control response was suppressed. One may read the Km as the substrate concentration at which the rate is half of its maximum.

The record behind these values is ChEMBL document CHEMBL1156499, “Tripeptides of RS1 (RSC1A1) inhibit a monosaccharide-dependent exocytotic pathway of Na+-D-glucose cotransporter SGLT1 with high affinity” (J Biol Chem, 2007).
